Assay [1] deals with Puccinia recondita f. sp. tritici. Type of assay: in vivo. The conditions noted are these: foliar, wheat leaf disc preventative, inoculated 1 day after application, compared to untreated control.
In assay [2] the test system is Magnaporthe grisea (Pyricularia oryzae). As to the kind of experiment: whole plant or invertebrate. The conditions noted are these: foliar, read-out: control of Magnaporthe grisea. Type of assay: in vivo.
A further assay concerns Pyrenophora teres. As to the kind of experiment: Example A12: Pyrenophora teres / barley / leaf disc preventative (net blotch). Type of assay: in vivo. The conditions noted are these: foliar, inoculated 2 days after application, compared to untreated control.
Assay [3] relates to Monographella nivalis (Microdochium nivale). Briefly: Example A6: Monographella nivalis (Microdochium nivale) / liquid culture (foot rot cereals). The class given is cell-based. The conditions noted are these: read-out: control of Monographella nivalis.
Assay [4] has as its system Glomerella lagenarium (Colletotrichum lagenarium). As to the kind of experiment: Example A3: Glomerella lagenarium (Colletotrichum lagenarium) / liquid culture (anthracnose). Type of assay: cell-based. As to conditions: Colletotrichum orbiculare; read-out: control of Glomerella lagenarium.

Here are results for 10 molecules from patent US20230270114A1, “FUNGICIDAL COMPOSITIONS” (SYNGENTA CROP PROTECTION AG, priority 2020, published 2023).

Molecules are shown by their SMILES.

With `CCOC(=O)OC(C)C(=O)N(c1cc(F)nc(F)c1)c1nc(C(=O)NC2CCC2)c(C)s1` (stereo not shown) [X.02, [2-[[4-(cyclobutylcarbamoyl)-5-methyl-thiazol-2-yl]-(2,6-difluoro-4-pyridyl)amino]-1-methyl-2-oxo-ethyl] ethyl carbonate], the pest or weed control at 200 ppm in assay [1] and in assay [2] was not below 80% throughout.

As for `COc1sc(N(C(C)=O)c2cc(F)nc(F)c2)nc1C(=O)NC1CCC12CCCC2` (stereo not shown) [X.10, 2-[acetyl-(2,6-difluoro-4-pyridyl)amino]-5-methoxy-N-spiro[3.4]octan-3-yl-thiazole-4-carboxamide], the pest or weed control at 200 ppm (in the assay with Pyrenophora teres; in assay [2]) was not below 80% throughout.

On to `COCC(=O)N(c1cc(F)nc(F)c1)c1nc(C(=O)NC2CCC2)c(C)s1` [X.12, N-cyclobutyl-2-[(2,6-difluoro-4-pyridyl)-(2-methoxyacetyl)amino]-5-methyl-thiazole-4-carboxamide], for which the pest or weed control at 200 ppm (in assay [1]; in the assay on Pyrenophora teres; in assay [2]) was not below 80% in each case. The inhibition of growth at 20 ppm in assay [3] is not below 80%.

`CC(=O)N(c1cc(F)nc(F)c1)c1nc(C(=O)NC2CCC2)c(C)s1` [X.13, 2-[acetyl-(2,6-difluoro-4-pyridyl)amino]-N-cyclobutyl-5-methyl-thiazole-4-carboxamide]: the pest or weed control at 200 ppm in assay [1] and in assay [2] was not below 80% throughout.

For `CCN(CC)C(=O)N(c1cc(F)nc(F)c1)c1nc(C(=O)NC2CCC2(C)C)c(C)s1` (stereo not shown) [X.16, 2-[diethylcarbamoyl-(2,6-difluoro-4-pyridyl)amino]-N-(2,2-dimethylcyclobutyl)-5-methyl-thiazole-4-carboxamide], the inhibition of growth at 20 ppm in assay [3] and in assay [4] was not below 80% throughout. The pest or weed control at 200 ppm in assay [2] is not below 80%.

`Cc1sc(N(C(=O)c2ccco2)c2cc(F)nc(F)c2)nc1C(=O)NC1CCC1(C)C` (stereo not shown) [X.19, 2-[(2,6-difluoro-4-pyridyl)-(furan-2-carbonyl)amino]-N-(2,2-dimethylcyclobutyl)-5-methyl-thiazole-4-carboxamide]: the pest or weed control at 200 ppm in assay [1] and in assay [2] was not below 80% throughout.

On to `Cc1sc(N(C(=O)Oc2ccccc2)c2cc(F)nc(F)c2)nc1C(=O)NC1CCC1(C)C` (stereo not shown) [X.26, phenyl N-(2,6-difluoro-4-pyridyl)-N-[4-[(2,2-dimethylcyclobutyl)carbamoyl]-5-methyl-thiazol-2-yl]carbamate], for which the inhibition of growth at 20 ppm in assay [3] was not below 80%. Besides, the pest or weed control at 200 ppm in assay [2] was not below 80%.

With `Cc1sc(N(C(=O)c2cccs2)c2cc(F)nc(F)c2)nc1C(=O)NC1CCC1(C)C` (stereo not shown) [X.31, 2-[(2,6-difluoro-4-pyridyl)-(thiophene-2-carbonyl)amino]-N-(2,2-dimethylcyclobutyl)-5-methyl-thiazole-4-carboxamide], the inhibition of growth at 20 ppm in assay [3] is not below 80%. Moreover, the pest or weed control at 200 ppm in assay [2] was not below 80%.

On to `COC(=O)N(c1cc(F)nc(F)c1)c1nc(C(=O)NC2CCC2(C)C)c(C)s1` (stereo not shown) [X.32, methyl N-(2,6-difluoro-4-pyridyl)-N-[4-[(2,2-dimethylcyclobutyl)carbamoyl]-5-methyl-thiazol-2-yl]carbamate], for which the pest or weed control at 200 ppm in assay [2] was not below 80%.

`CC(=O)N(c1cc(F)nc(F)c1)c1nc(C(=O)NC2CCC23CCCC3)c(C)s1` (stereo not shown) [X.37, 2-[acetyl-(2,6-difluoro-4-pyridyl)amino]-5-methyl-N-spiro[3.4] octan-3-yl-thiazole-4-carboxamide]: the pest or weed control at 200 ppm (in the assay with Pyrenophora teres; in assay [2]) was not below 80% in each case.
